Results taken from patent publication US20240148821A1, “PHARMACEUTICAL USE OF CYCLIC PEPTIDE COMPOUND” (CHUGAI SEIYAKU KABUSHIKI KAISHA, priority 2021, published 2024).
pIC50: −log10 of the molar value. Bridge positions count the residues as written; N and C are the ends. Square brackets hold non-standard residues; d marks the D form. Peptide text beside a SMILES is read from it. * marks the point of attachment. NMeAbu(3,3-F2-piperidino) = CN[C@@H](CCN1CCCC(F)(F)C1)C(=O)O; hPhe(3-Cl-4-CF3) = N[C@@H](CCc1ccc(C(F)(F)F)c(Cl)c1)C(=O)O; hPhe(3-F,4-CF3) = N[C@@H](CCc1ccc(C(F)(F)F)c(F)c1)C(=O)O; NMePhe(4-Cl) = CN[C@@H](Cc1ccc(Cl)cc1)C(=O)O; NMePhe(4-Me) = CN[C@@H](Cc1ccc(C)cc1)C(=O)O; NMePhe(2-Me) = CN[C@@H](Cc1ccccc1C)C(=O)O; NMeAla(cPent) = CN[C@@H](CC1CCCC1)C(=O)O; Phe(3-I) = N[C@@H](Cc1cccc(I)c1)C(=O)O; Phe(2-F) = N[C@@H](Cc1ccccc1F)C(=O)O; NMeY = CN[C@@H](Cc1ccc(O)cc1)C(=O)O; NMeCha = CN[C@@H](CC1CCCCC1)C(=O)O; NMeChg = CN[C@H](C(=O)O)C1CCCCC1; NMeD = CN[C@@H](CC(=O)O)C(=O)O; NMeL = CN[C@@H](CC(C)C)C(=O)O; NMeV = CN[C@H](C(=O)O)C(C)C; d(β3hA) = C[C@@H](N)CC(=O)O; Pip = O=C(O)[C@@H]1CCCCN1; NMeA = CN[C@@H](C)C(=O)O; NMeAib = CNC(C)(C)C(=O)O; Nle = CCCC[C@H](N)C(=O)O; Piperidide = C1CCN(*)CC1; Ac5c = NC1(C(=O)O)CCCC1; Aze = O=C(O)[C@@H]1CCN1; Sar = CNCC(=O)O

What follows are compounds tested on Human pancreatic cancer cell line AsPC-1 (G12D mutation Kras) (assay: AsPC-1 cell growth inhibition (AsPC-1 CGI)). Details: read-out: AsPC-1 cell growth inhibition, 50% growth inhibitory concentration (IC50 value); 96 hours, CellTiter-Glo, values classified in ranges.
Format: cell-based
Protocol: Test compounds were serially dilated with dimethyl sulfoxide, and 200 nL was then dispensed to a U-bottom 96-well plate using Labcyte Echo. […] The cell suspension was dispensed to a. plate containing a test compound at 100 μL per well and incubated at 37° C. in a 5% carbon dioxide gas incubator. 96 hours later, 80 μL of CellTiter-Glo (Promega) was added to each well and fluorescence was measured.

Row | SMILES | pIC50
1 | CC[C@H](C)[C@@H]1NC(=O)[C@H](C)N(C)C(=O)C[C@@H](C)NC(=O)[C@H](C(C)C)N(C)C(=O)C2(CCCC2)NC(=O)[C@@H]2CCCN2C(=O)[C@H](CCc2ccc(C(F)(F)F)c(Cl)c2)NC(=O)[C@H]2CCCN2C(=O)[C@H](CC2CCCCC2)N(C)C(=O)[C@@H]2CCCN2C(=O)CN(C)C1=O [Compound 666] (cyclo([Ac5c][NMeV][d(β3hA)][NMeA]I[Sar]P[NMeCha][dP][hPhe(3-Cl-4-CF3)]P)) | < 6.30
2 | CC[C@H](C)[C@@H]1NC(=O)[C@@H]2CCCCN2C(=O)C[C@@H](C(=O)N2CCCCC2)N(C)C(=O)[C@H](C(C)C)N(C)C(=O)C2(CCCC2)NC(=O)[C@@H]2CCCN2C(=O)[C@H](CCc2ccc(C(F)(F)F)c(F)c2)NC(=O)CN(C)C(=O)[C@H](CC2CCCCC2)N(C)C(=O)CN(C)C(=O)CN(C)C1=O [Compound 670] ([Pip]I[Sar][Sar][NMeCha][Sar][hPhe(3-F,4-CF3)]P[Ac5c][NMeV][NMeD]-Piperidide; lactam N-11) | < 6.30
3 | CCCC[C@@H]1NC(=O)[C@H](Cc2ccccc2F)NC(=O)CN(C)C(=O)[C@H](Cc2ccc(OC)cc2)N(C)C(=O)CN(C)C(=O)CN(C)C(=O)[C@H]([C@@H](C)CC)NC(=O)[C@H](CC(C)C)N(C)C(=O)C[C@@H](C(=O)N2CCCCC2)N(C)C(=O)[C@H](CC(C)C)NC(=O)[C@H](Cc2ccc(OC)cc2)N(C)C1=O [Compound 681] ([NMeL]I[Sar][Sar][NMeY](Me)[Sar][Phe(2-F)][Nle][NMeY](Me)L[NMeD]-Piperidide; lactam N-11) | < 6.30
4 | CC[C@H](C)[C@@H]1NC(=O)[C@H](C)N(C)C(=O)C[C@@H](C(=O)N2CCCCC2)N(C)C(=O)[C@H](C(C)C)N(C)C(=O)C2(CCCC2)NC(=O)[C@H](CCN2CCCC(F)(F)C2)N(C)C(=O)[C@H](CCc2ccc(C(F)(F)F)c(Cl)c2)NC(=O)CN(C)C(=O)[C@H](CC2CCCCC2)N(C)C(=O)[C@@H]2CCN2C(=O)[C@H](C)N(C)C1=O [Compound 682] ([NMeA]I[NMeA][Aze][NMeCha][Sar][hPhe(3-Cl-4-CF3)][NMeAbu(3,3-F2-piperidino)][Ac5c][NMeV][NMeD]-Piperidide; lactam N-11) | < 6.30
5 | CC[C@H](C)[C@@H]1NC(=O)[C@H](CC(C)C)N(C)C(=O)C[C@@H](C(=O)N2CCCCC2)N(C)C(=O)[C@H](C2CCCCC2)N(C)C(=O)C2(CCCC2)NC(=O)[C@H](CC(=O)O)N(C)C(=O)[C@H](CCc2ccc(C(F)(F)F)c(Cl)c2)NC(=O)CN(C)C(=O)[C@H](CC2CCCCC2)N(C)C(=O)CN(C)C(=O)CN(C)C1=O [Compound 688] ([NMeL]I[Sar][Sar][NMeCha][Sar][hPhe(3-Cl-4-CF3)][NMeD][Ac5c][NMeChg][NMeD]-Piperidide; lactam N-11) | < 6.30
6 | CCCC[C@@H]1NC(=O)[C@H](CCc2ccc(C(F)(F)F)c(Cl)c2)NC(=O)CN(C)C(=O)[C@H](CC2CCCC2)N(C)C(=O)[C@@H]2CCN2C(=O)[C@H](C)N(C)C(=O)[C@H]([C@@H](C)CC)NC(=O)[C@H](CC(C)C)N(C)C(=O)C[C@@H](C(=O)N2CCCCC2)N(C)C(=O)[C@H](CC(C)C)NC(=O)C(C)(C)N(C)C1=O [Compound 691] ([NMeL]I[NMeA][Aze][NMeAla(cPent)][Sar][hPhe(3-Cl-4-CF3)][Nle][NMeAib]L[NMeD]-Piperidide; lactam N-11) | < 6.30
7 | CCCC[C@@H]1NC(=O)[C@H](Cc2cccc(I)c2)NC(=O)CN(C)C(=O)[C@H](Cc2ccc(Cl)cc2)N(C)C(=O)CN(C)C(=O)CN(C)C(=O)[C@H]([C@@H](C)CC)NC(=O)[C@H](CC(C)C)N(C)C(=O)C[C@@H](C(=O)N2CCCCC2)N(C)C(=O)[C@H](CC(C)C)NC(=O)[C@H](Cc2ccccc2C)N(C)C1=O [Compound 696] ([NMeL]I[Sar][Sar][NMePhe(4-Cl)][Sar][Phe(3-I)][Nle][NMePhe(2-Me)]L[NMeD]-Piperidide; lactam N-11) | < 6.30
8 | CC[C@H](C)[C@@H]1NC(=O)[C@H](C)N(C)C(=O)C[C@@H](C)NC(=O)[C@H](C(C)C)N(C)C(=O)C2(CCCC2)NC(=O)[C@@H]2CCCN2C(=O)[C@H](CCc2ccc(C(F)(F)F)c(Cl)c2)NC(=O)CN(C)C(=O)[C@H](CC2CCCCC2)N(C)C(=O)CN(C)C(=O)CN(C)C1=O [Compound 697] (cyclo([Ac5c][NMeV][d(β3hA)][NMeA]I[Sar][Sar][NMeCha][Sar][hPhe(3-Cl-4-CF3)]P)) | < 6.30
9 | CC[C@H](C)[C@@H]1NC(=O)[C@H](CC(C)C)N(C)C(=O)C[C@@H](C(=O)N2CCCCC2)N(C)C(=O)[C@H](CC(C)C)NC(=O)C(C)(C)N(C)C(=O)[C@H](Cc2ccc(OC)cc2)NC(=O)[C@H](Cc2cccc(I)c2)NC(=O)CN(C)C(=O)[C@H](Cc2ccc(C)cc2)N(C)C(=O)[C@@H]2CCN2C(=O)[C@H](C)N(C)C1=O [Compound 703] ([NMeL]I[NMeA][Aze][NMePhe(4-Me)][Sar][Phe(3-I)]Y(Me)[NMeAib]L[NMeD]-Piperidide; lactam N-11) | < 6.30
